{
  "source": "patent US9029092B2",
  "about": "“Solution phase homogeneous assays” (Beckman Coulter, Inc., priority 2009, dated 2015)",
  "tested_on": "Rabbit anti cAMP",
  "source_text": "There are provided homogeneous immunoassays of an analyte utilizing a chemiluminescent-labeled capture antibody in combination with labeled analyte in a competitive immunoassay reaction. The example analyte cyclic-AMP (“cAMP”) is conjugated with HRP to provide a cAMP-HRP reagent, which competes for analyte cAMP at the capture antibody (“Capture Ab”) which is conjugated with AK5 to form a capture antibody-AK5 complex. […] Analyte (cAMP) which is not conjugated with HRP competes for the […], and upon addition of trigger solution the resulting capture antibody-AK5-cAMP complex provides no chemiluminescence (i.e., “No Light”). Accordingly, analyte cAMP competes for capture antibody-AK5 complex and thereby suppresses signal due to the capture antibody-AK1-cAMP-HRP complex.\nRabbit anti cAMP (IMMUNOTECH, Marseille) 0.1 mg (20.3 uL from 4.93 mg/mL stock) was added to 162 uL of 0.1 M sodium borate pH 8.25 buffer in 1.7 mL centrifuge tube. 17.6 ug of AK5 (17.6 ul from 1 mg/mL stock of DMF) was added. After quick vortex mixing tube was placed on a rotating shaker for 1 hour at room temperature. Reaction was quenched by adding 1.2 uL of L-lysine from 3 mg/mL stock. Reaction mixture was diluted (1:1) in 0.4% BSA and PBS and stored at 4 C. cAMP-HRP was prepared according to the literature. […] A 30 nM stock of cAMP was prepared in PBS and further diluted in PBS to make sample calibrators for the assay.\nThe competitive immunoassay protocol was as follows. AK5 labeled monoclonal Rabbit anti cAMP (0.275 ug/mL) (3 uL), HRP labeled cAMP (0.09375 ug/mL) (3 ul) and cAMP calibrators (4 ul) were added into a white polystyrene 384 low volume plate. Conjugate solutions were 0.2% in BSA. After incubation of 30 minutes at room temperature, 1 ul of 2-aminophenol (0.6875 mM) was added followed by a trigger solution (10 ul). The trigger solution contained 25 mM Tris pH 8, 8 mM p-hydroxycinnamic acid, 1 mM EDTA, 0.2% Tween-20 and 0.1 M ureaperoxide. Light intensity was measured (Spectromax) for one second immediately upon injection of trigger. Reactants were not exposed to light during incubation and were not shaken.",
  "note": "Like-named read-outs stand apart in the source and are kept apart here.",
  "data": [
    {"smiles": "Nc1ncnc2c1ncn2[C@@H]1O[C@@H]2COP(=O)(O)O[C@H]2[C@H]1O", "note": "[cAMP, cyclic-AMP]", "values": [
      {"measurement": "Average (light intensity)", "setting": "cAMP 0.412 nM", "value": 83377},
      {"measurement": "Signal Suppression", "setting": "cAMP 0.412 nM", "value": 9, "unit": "%"},
      {"measurement": "Average (light intensity)", "setting": "cAMP 3.7 nM", "value": 31156},
      {"measurement": "Signal Suppression", "setting": "cAMP 3.7 nM", "value": 66, "unit": "%"},
      {"measurement": "Average (light intensity)", "setting": "cAMP 33.3 nM", "value": 943},
      {"measurement": "Signal Suppression", "setting": "cAMP 33.3 nM", "value": 99, "unit": "%"},
      {"measurement": "Average (light intensity)", "setting": "cAMP 100 nM", "value": 315},
      {"measurement": "Signal Suppression", "setting": "cAMP 100 nM", "value": 100, "unit": "%"},
      {"measurement": "Average (light intensity)", "setting": "cAMP 1000 nM", "value": 173},
      {"measurement": "Signal Suppression", "setting": "cAMP 1000 nM", "value": 100, "unit": "%"},
      {"measurement": "Average (light intensity)", "setting": "cAMP 10000 nM", "value": 167},
      {"measurement": "Signal Suppression", "setting": "cAMP 10000 nM", "value": 100, "unit": "%"},
      {"measurement": "IC50", "setting": "read-out: IC50 for cAMP, competition with cAMP-HRP at AK5-labeled antibody, 2-aminophenol as SSIA", "value": 2.6, "unit": "nM"}
    ]}
  ]
}
